# From ChEMBL document CHEMBL1165867, “Synthesis, structure and structure-activity relationship analysis of caffeic acid amides as potential antimicrobials” (2010)
# What was measured:
# Test in all cases: microbe, parasite or virus in culture
# Assay type in all cases: functional
# Trichophyton rubrum = conditions: ATCC 10218, 48 h
# Description: Antifungal activity against Trichophyton rubrum ATCC 10218 after 48 hrs by MTT assay
# Bacillus subtilis = conditions: ATCC 6633, 24 h
# Description: Antibacterial activity against Bacillus subtilis ATCC 6633 after 24 hrs by MTT assay
# Aspergillus niger = conditions: ATCC 16404, 48 h
# Description: Antifungal activity against Aspergillus niger ATCC 16404 after 48 hrs by MTT assay
# Escherichia coli = conditions: ATCC 35218, 24 h
# Description: Antibacterial activity against Escherichia coli ATCC 35218 after 24 hrs by MTT assay
# Candida albicans = conditions: ATCC 10231, 48 h
# Description: Antifungal activity against Candida albicans ATCC 10231 after 48 hrs by MTT assay
# Pseudomonas fluorescens = conditions: ATCC 13525, 24 h
# Description: Antibacterial activity against Pseudomonas fluorescens ATCC 13525 after 24 hrs by MTT assay
# Staphylococcus aureus = conditions: ATCC 6538, 24 h
# Description: Antibacterial activity against Staphylococcus aureus ATCC 6538 after 24 hrs by MTT assay
smiles,measurement,setting,value
O=C(/C=C/c1ccc(O)c(O)c1)Nc1ccc(F)cc1,MIC,Trichophyton rubrum,> 50 µg/mL
same,MIC,Bacillus subtilis,7.95 µg/mL
same,MIC,Aspergillus niger,> 50 µg/mL
same,MIC,Escherichia coli,> 50 µg/mL
same,MIC,Candida albicans,> 50 µg/mL
same,MIC,Pseudomonas fluorescens,> 50 µg/mL
same,MIC,Staphylococcus aureus,> 50 µg/mL
COc1cccc(NC(=O)/C=C/c2ccc(O)c(O)c2)c1,MIC,Bacillus subtilis,50 µg/mL
same,MIC,Candida albicans,44.7 µg/mL
same,MIC,Pseudomonas fluorescens,> 50 µg/mL
same,MIC,Staphylococcus aureus,> 50 µg/mL
COc1ccc(NC(=O)/C=C/c2ccc(O)c(O)c2)cc1,MIC,Trichophyton rubrum,> 50 µg/mL
same,MIC,Bacillus subtilis,3.12 µg/mL
same,MIC,Aspergillus niger,> 50 µg/mL
same,MIC,Escherichia coli,> 50 µg/mL
same,MIC,Candida albicans,42.8 µg/mL
same,MIC,Pseudomonas fluorescens,> 50 µg/mL
same,MIC,Staphylococcus aureus,50 µg/mL
CCNC(=O)/C=C/c1ccc(O)cc1,MIC,Bacillus subtilis,> 50 µg/mL
same,MIC,Candida albicans,50 µg/mL
same,MIC,Pseudomonas fluorescens,> 50 µg/mL
same,MIC,Staphylococcus aureus,45.4 µg/mL
O=C(/C=C/c1ccc(O)c(O)c1)Nc1cccc([N+](=O)[O-])c1,MIC,Bacillus subtilis,> 50 µg/mL
same,MIC,Candida albicans,> 50 µg/mL
same,MIC,Pseudomonas fluorescens,> 50 µg/mL
same,MIC,Staphylococcus aureus,> 50 µg/mL
O=C(/C=C/c1ccc(O)c(O)c1)Nc1ccc([N+](=O)[O-])cc1,MIC,Trichophyton rubrum,> 50 µg/mL
same,MIC,Bacillus subtilis,15.5 µg/mL
same,MIC,Aspergillus niger,> 50 µg/mL
same,MIC,Escherichia coli,> 50 µg/mL
same,MIC,Candida albicans,49.4 µg/mL
same,MIC,Pseudomonas fluorescens,> 50 µg/mL
same,MIC,Staphylococcus aureus,> 50 µg/mL
O=C(/C=C/c1ccc(O)c(O)c1)N(c1ccccc1)c1ccccc1,MIC,Bacillus subtilis,> 50 µg/mL
same,MIC,Candida albicans,> 50 µg/mL
same,MIC,Pseudomonas fluorescens,> 50 µg/mL
same,MIC,Staphylococcus aureus,> 50 µg/mL
O=C(/C=C/c1ccc(O)c(O)c1)Nc1ccccc1[N+](=O)[O-],MIC,Bacillus subtilis,> 50 µg/mL
same,MIC,Candida albicans,> 50 µg/mL
same,MIC,Pseudomonas fluorescens,> 50 µg/mL
same,MIC,Staphylococcus aureus,> 50 µg/mL
O=C(/C=C/c1ccc(O)c(O)c1)Nc1ccccc1Cl,MIC,Bacillus subtilis,45.8 µg/mL
same,MIC,Candida albicans,42.8 µg/mL
same,MIC,Pseudomonas fluorescens,41.2 µg/mL
same,MIC,Staphylococcus aureus,> 50 µg/mL
O=C(/C=C/c1ccc(O)c(O)c1)Nc1ccccc1Br,MIC,Bacillus subtilis,49.5 µg/mL
same,MIC,Candida albicans,27.5 µg/mL
same,MIC,Pseudomonas fluorescens,42.2 µg/mL
same,MIC,Staphylococcus aureus,> 50 µg/mL
O=C(/C=C/c1ccc(O)c(O)c1)Nc1cccc(F)c1,MIC,Bacillus subtilis,46.7 µg/mL
same,MIC,Candida albicans,> 50 µg/mL
same,MIC,Pseudomonas fluorescens,> 50 µg/mL
same,MIC,Staphylococcus aureus,> 50 µg/mL
O=C(/C=C/c1ccc(O)c(O)c1)Nc1cccc(Cl)c1,MIC,Bacillus subtilis,50 µg/mL
same,MIC,Candida albicans,> 50 µg/mL
same,MIC,Pseudomonas fluorescens,> 50 µg/mL
same,MIC,Staphylococcus aureus,49.2 µg/mL
O=C(/C=C/c1ccc(O)c(O)c1)Nc1cccc(Br)c1,MIC,Bacillus subtilis,50 µg/mL
same,MIC,Candida albicans,> 50 µg/mL
same,MIC,Pseudomonas fluorescens,> 50 µg/mL
same,MIC,Staphylococcus aureus,> 50 µg/mL
Cc1ccc(NC(=O)/C=C/c2ccc(O)c(O)c2)cc1,MIC,Trichophyton rubrum,> 50 µg/mL
same,MIC,Bacillus subtilis,1.18 µg/mL
same,MIC,Aspergillus niger,> 50 µg/mL
same,MIC,Escherichia coli,> 50 µg/mL
same,MIC,Candida albicans,> 50 µg/mL
same,MIC,Pseudomonas fluorescens,42.2 µg/mL
same,MIC,Staphylococcus aureus,> 50 µg/mL
O=C(/C=C/c1ccc(O)c(O)c1)Nc1ccc(Cl)cc1,MIC,Trichophyton rubrum,> 50 µg/mL
same,MIC,Bacillus subtilis,6.25 µg/mL
same,MIC,Aspergillus niger,> 50 µg/mL
same,MIC,Escherichia coli,> 50 µg/mL
same,MIC,Candida albicans,> 50 µg/mL
same,MIC,Pseudomonas fluorescens,50 µg/mL
same,MIC,Staphylococcus aureus,46.8 µg/mL
O=C(/C=C/c1ccc(O)c(O)c1)Nc1ccc(Br)cc1,MIC,Trichophyton rubrum,> 50 µg/mL
same,MIC,Bacillus subtilis,3.89 µg/mL
same,MIC,Aspergillus niger,> 50 µg/mL
same,MIC,Escherichia coli,> 50 µg/mL
same,MIC,Candida albicans,> 50 µg/mL
same,MIC,Pseudomonas fluorescens,50 µg/mL
same,MIC,Staphylococcus aureus,> 50 µg/mL
Cc1ccccc1NC(=O)/C=C/c1ccc(O)c(O)c1,MIC,Bacillus subtilis,35 µg/mL
same,MIC,Candida albicans,> 50 µg/mL
same,MIC,Pseudomonas fluorescens,42.5 µg/mL
same,MIC,Staphylococcus aureus,> 50 µg/mL
Cc1cccc(NC(=O)/C=C/c2ccc(O)c(O)c2)c1,MIC,Bacillus subtilis,40.2 µg/mL
same,MIC,Candida albicans,> 50 µg/mL
same,MIC,Pseudomonas fluorescens,38.8 µg/mL
same,MIC,Staphylococcus aureus,45.6 µg/mL
O=C(/C=C/c1ccc(O)c(O)c1)Nc1ccccc1F,MIC,Bacillus subtilis,50 µg/mL
same,MIC,Candida albicans,33.3 µg/mL
same,MIC,Pseudomonas fluorescens,> 50 µg/mL
same,MIC,Staphylococcus aureus,> 50 µg/mL
COc1ccccc1NC(=O)/C=C/c1ccc(O)c(O)c1,MIC,Bacillus subtilis,39.8 µg/mL
same,MIC,Candida albicans,> 50 µg/mL
same,MIC,Pseudomonas fluorescens,13.2 µg/mL
same,MIC,Staphylococcus aureus,47.4 µg/mL
CN(C(=O)/C=C/c1ccc(O)c(O)c1)c1ccccc1,MIC,Bacillus subtilis,> 50 µg/mL
same,MIC,Candida albicans,> 50 µg/mL
same,MIC,Pseudomonas fluorescens,> 50 µg/mL
same,MIC,Staphylococcus aureus,> 50 µg/mL
O=C(/C=C/c1ccc(O)c(O)c1)Nc1ccccc1,MIC,Bacillus subtilis,28.4 µg/mL
same,MIC,Candida albicans,50 µg/mL
same,MIC,Pseudomonas fluorescens,> 50 µg/mL
same,MIC,Staphylococcus aureus,41.5 µg/mL
CCNC(=O)/C=C/c1ccc(O)c(O)c1,MIC,Bacillus subtilis,> 50 µg/mL
same,MIC,Candida albicans,> 50 µg/mL
same,MIC,Pseudomonas fluorescens,> 50 µg/mL
same,MIC,Staphylococcus aureus,> 50 µg/mL
CCN(CC)C(=O)/C=C/c1ccc(O)c(O)c1,MIC,Bacillus subtilis,> 50 µg/mL
same,MIC,Candida albicans,> 50 µg/mL
same,MIC,Pseudomonas fluorescens,> 50 µg/mL
same,MIC,Staphylococcus aureus,> 50 µg/mL
O=C(O)/C=C/c1ccc(O)c(O)c1 [CAFFEIC ACID],MIC,Bacillus subtilis,> 50 µg/mL
same,MIC,Candida albicans,> 50 µg/mL
same,MIC,Pseudomonas fluorescens,> 50 µg/mL
same,MIC,Staphylococcus aureus,> 50 µg/mL
O=C(O)/C=C/c1ccc(O)cc1 [COUMARIC ACID],MIC,Bacillus subtilis,> 50 µg/mL
same,MIC,Candida albicans,> 50 µg/mL
same,MIC,Pseudomonas fluorescens,> 50 µg/mL
same,MIC,Staphylococcus aureus,> 50 µg/mL
NC[C@H]1O[C@H](O[C@H]2[C@H](O)[C@@H](O[C@H]3O[C@H](CO)[C@@H](O)[C@H](N)[C@H]3O)[C@H](N)C[C@@H]2N)[C@H](O)[C@@H](O)[C@@H]1O [KANAMYCIN],MIC,Bacillus subtilis,0.39 µg/mL
same,MIC,Pseudomonas fluorescens,5.08 µg/mL
same,MIC,Staphylococcus aureus,1.28 µg/mL
CC1(C)S[C@@H]2[C@H](NC(=O)Cc3ccccc3)C(=O)N2[C@H]1C(=O)O [PENICILLIN G],MIC,Bacillus subtilis,0.78 µg/mL
same,MIC,Staphylococcus aureus,1.39 µg/mL
